Measured values taken from US6239130A, “Phosphodiesterase 4-inhibiting diazepinoindolones” (Warner-Lambert Company, priority 1997, dated 2001).

system: PDE4 enzyme of human origin; assay: PDE4-inhibiting activity on an enzyme preparation obtained from the U937 cell line; format: biochemical; details: not given
Protocol: In the case of the PDE4 enzymes, this value is compared with that of rolipram, a specific PDE4 inhibitor. […] Measurement of the enzyme activity of the different types of PDE, and especially of the PDE4 enzymes, is then carried out according to a method adapted from W. J. Thompson, ibidem.

Going from `Cc1cc2c3c(c1)C(c1ccccc1)=NC(n1c(C)nc4cc(C(=O)OC[C@@H](O)CO)ccc4c1=O)C(=O)N3CC2` (stereo partly drawn) [Example 10D, 1-(2S)-glyceryl 2-methyl-3-(9-methyl-4-oxo-1-phenyl-3,4,6,7-tetrahydro[1,4]diazepino[6,7,1-hi]indol-3-yl)-4-oxo-3,4-dihydroquinazoline-7-carboxylate] to `COC(=O)c1ccc2c(=O)n(C3N=C(c4ccccc4)c4cc(C)cc5c4N(CC5)C3=O)c(C)nc2c1` (stereo not drawn) [Example 7A, Methyl 2-methyl-3-(9-methyl-4-oxo-1-phenyl-3,4,6,7-tetrahydro-[1,4]diazepino[6,7,1-hi]indol-3-yl)-4-oxo-3,4-dihydroquinazoline-7-carboxylate], the IC50 rises from 42 nM to 157 nM (3.7-fold).

Compared with `Cc1nc2ccccc2c(=O)n1C1N=C(c2ccccc2)c2cc(N)cc3c2N(CC3)C1=O` (stereo not drawn) [Example 29, 9-Amino-3-(2-methyl-4-oxo-4H-quinazolin-3-yl)-1-phenyl-6,7-dihydro-3H-[1,4]diazepino[6,7,1-hi]indol-4-one], `COc1cc2c3c(c1)C(c1ccccc1)=NC(n1c(C)nc4ccccc4c1=O)C(=O)N3CC2` (stereo not drawn) [Example 2A, 9-methoxy-3-(2-methyl-4-oxo-4H-quinazolin-3-yl)-1-phenyl-6,7-dihydro-3H-[1,4]diazepino [6,7,1-hi] indol-4-one] is 14-fold higher in IC50: 13 nM for the first, 183 nM for the second. The first is the more potent here.

First: Cc1cc2c3c(c1)C(c1ccccc1)=NC(n1c(C)nc4cc(C(=O)N5CCN(CCO)CC5)ccc4c1=O)C(=O)N3CC2 (stereo not drawn) [Example 9F, 3-{7-[4-(2-hydroxyethyl)piperazine-1-carbonyl]-2-methyl-4-oxo-4H-quinazolin-3-yl}-9-methyl-1-phenyl-6,7-dihydro-3H-[1,4]diazepino[6,7,1-hi]indol-4-one]
Second: Cc1cc2c3c(c1)C(c1ccccc1)=NC(n1c(C)nc4cc(C(=O)O)ccc4c1=O)C(=O)N3CC2 (racemic) [Example 7, 2-methyl-3-(9-methyl-4-oxo-1-phenyl-3,4,6,7-tetrahydro-[1,4]diazepino[6,7,1-hi]indol-3-yl)-4-oxo-3,4-dihydroquinazoline-7-carboxylic acid]
The IC50 of the first is 3.7-fold higher: 192 nM for the first, 52 nM for the second. The second is the more potent here.

Compared with `COC(=O)[C@H](CCCCNC(=O)OC(C)(C)C)NC(=O)CCC(=O)OCc1nc2ccccc2c(=O)n1C1N=C(c2ccccc2)c2cc(C)cc3c2N(CC3)C1=O` (stereo partly drawn) [Example 17G, Methyl 6-t-butoxycarbonylamino-2-{3-[3-(9-methyl-4-oxo-1-phenyl-3,4,6,7-tetrahydro-[1,4]diazepino[6,7,1-hi]indol-3-yl)-4-oxo-3,4-dihydroquinazolin-2-ylmethoxycarbonyl]propionylamino}hexanoate], `Cc1cc2c3c(c1)C(c1ccccc1)=NC(n1c(COC(=O)CCC(=O)O)nc4ccccc4c1=O)C(=O)N3CC2` (stereo not drawn) [Example 17C, [3-(9-Methyl-4-oxo-1-phenyl-3,4,6,7-tetrahydro-[1,4]diazepino[6,7,1-hi]indol-3-yl)-4-oxo-3,4-dihydroquinazolin-2-yl]methyl hydrogen succinate] is 1.5-fold lower in IC50: 516 nM for the first, 339 nM for the second.

First: Cc1cc2c3c(c1)C(c1ccccc1)=N[C@@H](n1c(C)nc4cccc(C)c4c1=O)C(=O)N3CC2 [Example 3, (3S)-9-methyl-3-(2,5-dimethyl-4-oxo-4H-quinazolin-3-yl)-1-ph enyl-6,7-dihydro-3H-[1,4]-diazepino[6,7,1-hi]indol-4-one]
Second: Cc1cc2c3c(c1)C(c1ccccc1)=NC(n1c(C)nc4cccc(Cl)c4c1=O)C(=O)N3CC2 (stereo not drawn) [Example 13, 3-(5-chloro-2-methyl-4-oxo-4H-quinazolin-3-yl)-9-methyl-1-phenyl-6,7-dihydro-3H-[1,4]diazepino-[6,7,1-hi]indol-4-one]
The IC50 of the first is 1.7-fold higher: 141 nM for the first, 83 nM for the second.

Compared with `Cc1nc2cccc(Cl)c2c(=O)n1C1N=C(c2ccccc2)c2cc(N)cc3c2N(CC3)C1=O` (stereo not drawn) [Example 34B, 9-Amino-3-(5-chloro-2-methyl-4-oxo-4H-quinazolin-3-yl)-1-phenyl-6,7-dihydro-3H-[1,4]diazepino[6,7,1-hi]indol-4-one], `Cc1cc2c3c(c1)C(c1ccccc1)=N[C@@H](n1c(C)nc4cccc(F)c4c1=O)C(=O)N3CC2` [Example 12] is 29-fold higher in IC50: 3 nM for the first, 88 nM for the second. The first is the more potent here.

`Cc1cc2c3c(c1)C(c1ccccc1)=NC(n1c(C)nc4cc(C(=O)NCCN5CCOCC5)ccc4c1=O)C(=O)N3CC2` (stereo not drawn) [Example 9B, 2-methyl-3-(9-methyl-4-oxo-1-phenyl-3,4,6,7-tetrahydro[1,4]diazepino[6,7,1-hi]indol-3-yl) 4-oxo-3,4-dihydroquinazoline-7-carboxylic acid (2-morpholin-4-yl-ethyl)amide] and `Cc1cc2c3c(c1)C(c1ccccc1)=NC(n1c(C)nc4cc(C(=O)OCC(O)CN5CCOCC5)ccc4c1=O)C(=O)N3CC2` (stereo not drawn) [Example 10E, 2-hydroxy-3-morpholin-4-ylpropyl 2-methyl-3-(9-methyl-4-oxo-1-phenyl-3,4,6,7-tetrahydro[1,4]diazepino[6,7,1-hi]indol-3-yl)-4-oxo-3,4-dihydroquinazoline-7-carboxylate] are within 1.5-fold of each other in IC50: 95 nM for the first, 75 nM for the second.

First: COC(=O)c1ccc2c(=O)n(C3N=C(c4ccccc4)c4cc(N)cc5c4N(CC5)C3=O)c(C)nc2c1 (stereo not drawn) [Example 28B]
Second: Cc1cc2c3c(c1)C(c1ccccc1)=NC(n1c(C)nc4cc(C(=O)N(C)C)ccc4c1=O)C(=O)N3CC2 (stereo not drawn) [Example 9A, 2-methyl-3-(9-methyl-4-oxo-1-phenyl-3,4,6,7-tetrahydro[1,4]diazepino[6,7,1-hi]indol-3-yl)-4-oxo-3,4dihydroquinazoline-7-N-dimethylearboxamide]
The IC50 of the first is 41-fold lower: 3 nM for the first, 122 nM for the second. The first is the more potent here.

`Cc1cc2c3c(c1)C(c1ccccc1)=NC(n1c(CO)nc4ccccc4c1=O)C(=O)N3CC2` (stereo not drawn) [Example 17B, 9-Methyl-3-(2-hydroxymethyl-4-oxo-4H-quinazolin-3-yl)-1-phenyl-6,7-dihydro-3H-[1,4]diazepino[6,7,1-hi]indol-4-one] and `CCOC(=O)CCc1nc2ccccc2c(=O)n1C1N=C(c2ccccc2)c2cc(C)cc3c2N(CC3)C1=O` (stereo not drawn) [Example 17H, Ethyl 3-[3-(9-methyl 4oxo-1-phenyl-3,4,6,7-tetrahydro[1,4]diazepino[6,7,1-hi]indol-3-yl)-4-oxo-3,4-dihydroquinazolin-2-yl]propanoate] are within 1.5-fold of each other in IC50: 221 nM for the first, 184 nM for the second.

First: CCOC(=O)c1nc2ccccc2c(=O)n1C1N=C(c2ccccc2)c2cc(C)cc3c2N(CC3)C1=O (stereo not drawn) [Example 14, ethyl 3-(9-methyl-4-oxo-1-phenyl-3,4,6,7-tetrahydro-[1,4]diazepino[6,7,1-hi]indol-3-yl)-4-oxo-3,4-dihydroquinazoline-2-carboxylate]
Second: Cc1cc2c3c(c1)C(c1ccccc1)=N[C@@H](n1c(C)nc4cnccc4c1=O)C(=O)N3CC2 [Example 19, (3S)-3-(2-Methyl-4-oxo-4H-pyrido[3,4-d]-pyrimidin-3-yl)-9-methyl-1-phenyl-6,7-dihydro-3H-[1,4]diazepino[6,7,1-hi]indol-1-one]
The IC50 of the first is 1.6-fold higher: 310 nM for the first, 193 nM for the second.

Compared with `Cc1cc2c3c(c1)C(c1ccccc1)=NC(n1c(C)nc4cc(C(=O)N[C@@H](C)C(=O)O)ccc4c1=O)C(=O)N3CC2` (stereo partly drawn) [Example 35B], `Cc1cc2c3c(c1)C(c1ccccc1)=NC(n1c(C)nc4cc(-c5nnn[nH]5)ccc4c1=O)C(=O)N3CC2` (stereo not drawn) [Example 8B] is 6.8-fold lower in IC50: 190 nM for the first, 28 nM for the second.

`Cc1cccc2c(=O)n(C3N=C(c4ccccc4)c4cc([N+](=O)[O-])cc5c4N(CC5)C3=O)c(C)nc12` (stereo not drawn) [Example 24, 3-(2,8-Dimethyl-4-oxo-4H-quinazolin-3-yl)-9-nitro-1-phenyl-6,7-dihydro-3H-[1,4]diazepino-[6,7,1-hi]indol-4-one] showed an IC50 of 30600 nM.

same assay, conditions: listed as 7B

`Cc1cc2c3c(c1)C(c1ccccc1)=NC(n1c(C)nc4cc(C(=O)O)ccc4c1=O)C(=O)N3CC2` (racemic) [Example 7, 2-methyl-3-(9-methyl-4-oxo-1-phenyl-3,4,6,7-tetrahydro-[1,4]diazepino[6,7,1-hi]indol-3-yl)-4-oxo-3,4-dihydroquinazoline-7-carboxylic acid] showed an IC50 of 57 nM.
